Where a name gives a salt, the structure may show the parent alone.
Test: Solubility
Assay type: physicochemical
[1] = aqueous dilute acids, in the hot

Row | solubility in alcohols in the hot (in the hot) | solubility in benzene | solubility in chloroform (chloroform) | solubility in ether | solubility in water (water) | solubility in methylene chloride (methylene chloride) | Compound | other results
1 | – | poorly soluble | Soluble | poorly soluble | Insoluble | Soluble | COc1ccc(-c2cnn(CC(=O)C(C)C)c(=O)n2)cc1 [Example 5, 2-(3'-methyl 2'-one butyl) 3-oxo 5-p-methoxyphenyl as.-triazine] | –
2 | – | – | Soluble | insoluble | insoluble | Soluble | CC(=O)Cn1ncc(-c2ccc(C)cc2)nc1=O [Example 6, 2-acetonyl 3-oxo 5-p-methylphenyl as.-triazine] | –
3 | Soluble | – | – | insoluble | insoluble | – | CC(=O)c1ccc(N2CCN(CCCn3ncc(-c4ccc(C)cc4)nc3=O)CC2)cc1 [Example 11, 2-γ propyl p-piperazinoacetophenone 3-oxo 5-methylphenyl as.-triazine] | solubility in alcohols: insoluble; solubility in chloroform in the hot (chloroform, in the hot): Soluble; solubility in methylene chloride in the hot (methylene chloride, in the hot): Soluble
4 | Soluble | – | Soluble | insoluble | insoluble | Soluble | Cc1ccc(-c2cnn(CCCCN3CCN(c4cccc(Cl)c4)CC3)c(=O)n2)cc1 [Example 13, 2-N-δ butyl (m-chlorophenyl piperazine) 3-oxo 5-p-methylphenyl as.-triazine] | solubility in aqueous dilute acids in the hot [1]: Soluble
5 | – | – | Soluble | insoluble | insoluble | Soluble | Cc1ccc(-c2cnn(CCCN3CCN(c4cccc(Cl)c4)CC3)c(=O)n2)cc1 [Example 14, 2-γ(m-chlorophenylpiperazine)-propyl 3-oxo 5-p-methylphenyl as.-triazine hydrochloride] | –
6 | – | Soluble | Soluble | insoluble | insoluble | Soluble | COc1ccc(-c2cnn(CCCN(C)C)c(=O)n2)cc1 [Example 17, 2-γ dimethylaminopropyl 3-oxo 5-p-methoxyphenyl as.-triazine] | solubility in alcohols: Soluble; solubility in aqueous dilute acids (aqueous dilute acids): Soluble
7 | – | – | Poorly soluble | – | insoluble | Poorly soluble | COc1ccc(-c2cnn(C(CCO)C(=O)O)c(=O)n2)cc1 (stereo not shown) [Example 18, 2-[3-(3-carboxy 1-propanol)] 3-oxo 5-p-methoxyphenyl as.-triazine] | solubility in alcohols: rather soluble
8 | – | Poorly soluble | Poorly soluble | insoluble | insoluble | – | Cc1ccc(-c2cnn(C(CCO)C(=O)O)c(=O)n2)cc1 (stereo not shown) [Example 19, 2-[3-(3-carboxy 1-propanol)] 3-oxo 5-p-methylphenyl as.-triazine] | solubility in alcohols: Poorly soluble
9 | – | poorly soluble | Soluble | poorly soluble | insoluble | Soluble | Cc1ccc(-c2cnn(C3CCOC3=O)c(=O)n2)cc1 (stereo not shown) [Example 20, 2-butyrolactone 3-oxo 5-p-methylphenyl as.-triazine] | –
10 | soluble | – | – | insoluble | insoluble | – | CCOc1ccc(-c2cnn(CC(C)=O)c(=O)n2)cc1 [Example 24, 2-acetonyl 3-oxo 5-p-ethoxyphenyl as.-triazine] | solubility in chlorinated solvents: Soluble
11 | – | Soluble | Soluble | – | insoluble | – | CCOC(=O)CC(C(=O)OCC)n1ncc(-c2ccc(OC)cc2)nc1=O (stereo not shown) [Example 27, 2-diethoxysuccinyl 3-oxo 5-p-methoxyphenyl as.-triazine] | solubility in alcohols: Soluble
12 | – | – | Soluble | – | insoluble | – | COc1ccc(-c2cnn(CCCCCN3CCC(O)CC3)c(=O)n2)cc1 [Example 28, N 2-[ε-pentyl (4-hydroxypiperidine)] 3-oxo 5-p-methoxyphenyl as.-triazine] | solubility in alcohols: Soluble
13 | – | insoluble | poorly soluble | insoluble | – | rather soluble | COc1ccc(-c2cnn(CCO)c(=O)n2)cc1 [Example 31, 2-ethanol 3-oxo 5-p-methoxyphenyl as.-triazine] | solubility in water in the hot (water, in the hot): Soluble
14 | – | – | Soluble | – | insoluble | Soluble | COc1ccc(-c2cnn(CCCC(=O)c3ccc(F)cc3)c(=O)n2)cc1 [Example 33, 2-N-(γp-fluorobutyrophenone) 3-oxo 5-p-methoxyphenyl as.-triazine] | –
15 | – | Soluble | Soluble | – | insoluble | – | CCOC(=O)CCCn1ncc(-c2ccc(C)cc2)nc1=O [Example 35, 2-N-ethylbutyrate 3-oxo 5-p-methylphenyl as.-triazine] | solubility in alcohols: Soluble

Second part, the molecule before the results:

Row | Compound | solubility in alcohols in the hot (in the hot) | solubility in benzene | solubility in chloroform (chloroform) | solubility in ether | solubility in water (water) | solubility in methylene chloride (methylene chloride) | other results
16 | CC(=O)Cn1ncc(-c2ccc(O)cc2)nc1=O [Example 2, 2-N-acetonyl 3-oxo 5-p-hydroxyphenyl as.-triazine] | Soluble in the hot, recrystallizes in the cold | Insoluble | Insoluble | Insoluble | rather soluble | – | solubility in dilute aqueous bases (dilute aqueous bases): soluble
17 | CC(=O)Cn1ncc(-c2ccc(OC3CCOC3=O)cc2)nc1=O (stereo not shown) [Example 3, 2-acetonyl 3-oxo 5-p-(alphaoxy γ butryolactone)phenyl as.-triazine] | – | Insoluble | Insoluble | Insoluble | Insoluble | – | –
18 | CC(=O)Cn1ncc(-c2ccccc2)nc1=O [Example 7, 2-acetonyl 3-oxo 5-phenyl as.-triazine] | – | – | Soluble | insoluble | insoluble | Soluble | –
19 | COc1ccc(-c2cnn(CCN3CCN(c4cccc(Cl)c4)CC3)c(=O)n2)cc1 [Example 10, 2 β ethyl(metachlorophenyl)piperazine 3-oxo 5-p-methoxyphenyl as.-triazine] | – | – | Poorly soluble | – | – | Poorly soluble | solubility in aqueous dilute acids in the hot [1]: Soluble
20 | COc1ccc(C2C=NN(CCCN3CCN(c4cccc(Cl)c4)CC3)C(=O)N2)cc1 (stereo not shown) [Example 12, 2-N-γ propyl(m-chlorophenylpiperazine) 3-oxo 4,5-dihydro 5-p-methoxyphenyl as.-triazine] | Soluble | – | Soluble | insoluble | insoluble | Soluble | solubility in aqueous dilute acids in the hot [1]: Soluble
21 | COc1ccc(-c2cnn(CCCCCN3CCN(c4cccc(Cl)c4)CC3)c(=O)n2)cc1 [Example 15, 2-N (ε-pentyl m-chlorophenyl piperazine) 3-oxo 5-p-methoxyphenyl as.-triazine] | – | – | Soluble | insoluble | insoluble | Soluble | –
22 | COc1ccc(-c2cnn(CCN3CCN(c4cccc(C(F)(F)F)c4)CC3)c(=O)n2)cc1 [Example 16, 2-β ethyl (m-trifluoromethylphenyl) piperazine 3-oxo 5-p-methoxyphenylas.-triazine] | – | poorly soluble | Soluble | insoluble | insoluble | Soluble | –
23 | COc1ccc(-c2cnn(CC(C)=O)c(=O)n2)c(OC)c1 [Example 25, 2-acetonyl 3-oxo 5-(2',4'-dimethoxy)phenyl as.-triazine] | – | – | Soluble | insoluble | insoluble | Soluble | –
24 | CC(=O)Cn1ncc(-c2cccs2)nc1=O [Example 26, 2-acetonyl 3-oxo 5-γ-thienyl as.-triazine] | – | – | – | insoluble | insoluble | – | solubility in chlorinated solvents: Soluble
25 | Cc1ccc(C2C=NN(C(c3ccccc3)C(O)c3ccccc3)C(=O)N2)cc1 (stereo not drawn) [Example 29, N-2[α(1,2-diphenylethan 1-ol)] 3-oxo 4,5-dihydro 5-p-methylphenyl as.-triazine] | Soluble | – | insoluble | insoluble | insoluble | – | –
26 | COc1ccc(-c2cnn(C(c3ccccc3)c3ccccc3)c(=O)n2)cc1 [Example 30, 2-N-diphenylmethyl 3-oxo 5-p-methoxyphenyl as.-triazine] | Soluble | – | insoluble | – | insoluble | Soluble | –
27 | COc1ccc(-c2cnn(C(C(=O)c3ccccc3)c3ccccc3)c(=O)n2)cc1 (stereo not shown) [Example 34, 2-N-desyl 3-oxo 5-p-methoxyphenyl as.-triazine] | Soluble | – | rather soluble | poorly soluble | insoluble | – | –
28 | Cc1ccc(-c2cnn(C(C(=O)c3ccccc3)c3ccccc3)c(=O)n2)cc1 (stereo not shown) [Example 36, 2-N-desyl 3-oxo 5-p-methylphenyl as.-triazine] | Soluble | – | Soluble | – | insoluble | Soluble | –

— patent US4851411A, “5-monoaryl as.-triazin-3-ones substituted in 2-position, and their use as medicaments” (Pierre Fabre Medicament, priority 1986, dated 1989)
